The test system of assay [1] is telomere length in DC patient iPSCs. The assay can be described thus: telomere length / telomere elongation in DC patient iPSCs. The format is cell-based, human. The conditions noted are these: Homo sapiens, iPSC; patient iPSCs; concentration class at which activity is seen; read-out: iPSC-based Telomere length. The procedure:
(§1) Compound 266A had activity ˜2-logs higher in the in vitro RNA oligoadenylation assay compared to the parental compound cmpd. 1, approximating the activity of RG7834 (FIG. 7). […] 1. Compounds 295A and 296A had activity 2-3 logs higher in DC patient iPSCs, showing TERC maturation at 1 nM, similar to RG7834 (FIG. 6). […] Referring to Table 1D, “+” refers to activity at 1 μM, “++” refers to activity above 1 nM and below 1 μM, and “+++” refers to activity at <1 nM, “ND” refers to not determined.

In the next assay the target is T1, rPAPD5 (Homo sapiens, UniProt Q8NDF8).
T1 construct: made in house
T1 sequence (Q8NDF8 68-698 isoform Q8NDF8-5 limits assumed): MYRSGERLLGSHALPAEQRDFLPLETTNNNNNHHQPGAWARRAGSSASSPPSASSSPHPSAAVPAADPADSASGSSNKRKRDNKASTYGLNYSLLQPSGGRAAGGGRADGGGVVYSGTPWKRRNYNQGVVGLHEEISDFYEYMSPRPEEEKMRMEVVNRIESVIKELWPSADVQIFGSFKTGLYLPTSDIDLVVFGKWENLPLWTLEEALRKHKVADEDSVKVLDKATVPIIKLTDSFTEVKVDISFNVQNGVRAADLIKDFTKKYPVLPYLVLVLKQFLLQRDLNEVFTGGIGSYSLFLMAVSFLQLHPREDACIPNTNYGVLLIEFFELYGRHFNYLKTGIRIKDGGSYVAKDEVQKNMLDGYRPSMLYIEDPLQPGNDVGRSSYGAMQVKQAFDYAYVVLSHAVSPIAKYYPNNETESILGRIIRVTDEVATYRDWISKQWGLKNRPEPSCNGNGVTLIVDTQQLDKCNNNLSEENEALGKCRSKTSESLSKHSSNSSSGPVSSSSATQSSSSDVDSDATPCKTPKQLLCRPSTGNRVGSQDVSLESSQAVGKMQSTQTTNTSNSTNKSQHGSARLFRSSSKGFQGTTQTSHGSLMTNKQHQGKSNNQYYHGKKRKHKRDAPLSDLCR
As to the kind of experiment: differential scanning fluorimetry (DSF) binding and stabilization of rPAPD5. The conditions noted are these: for ΔTm at 1 µM: 1 μM test compound (Table 2a), read-out: ΔTm at 1 μM; for ΔTm at 100 µM: 100 μM test compound, read-out: ΔTm at 100 μM. Put shortly:
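Compound-induced shifts in rPAPD5 melting temperature were determined by thermal shift (DSF). Protein at […] was mixed with a non-extendable ATP analog […] in Tris-HCl (25 mM), MgCl2 (5 mM) and KCl (50 mM), with SYPRO orange at 1:5000. Curves were averages of three measurements analyzed with Thermal Shift software, and ΔTm was referenced to DMSO.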

The test system of assay [2] is TERC 3′ end processing in DC patient iPSCs. As to the kind of experiment: TERC 3′ end processing by RACE in DC patient / PARN-mutant iPSCs. The format is cell-based, human. The conditions noted are these: Homo sapiens, iPSC; patient iPSCs; concentration class at which activity is seen; read-out: iPSC-based RACE activity. As for the experimental part:
as §1

The subject of assay [3] is hepatitis B surface antigen (HBSAg) from HepG2.2.15 cells, a hepatitis B virus-expressing cell line. As to the kind of experiment: HBsAg ELISA in supernatant of HepG2.2.15 cells. The format is cell-based. The conditions noted are these: HepG2.2.15, 96 h. The procedure:
HepG2.2.15 cells, a hepatitis B virus-expressing cell line (Sells, M. A. et al., PNAS, 1987), were plated at 50,000 cells/well in DMEM/F12 media (Gibco) with 10% fetal bovine serum (Omega Scientific) in a 24-well or 96-well plate (Corning), in 2-3 replicates for each test compound/concentration plus controls, and incubated in a humidified 5% CO2 chamber at 37° C. The next day, media was aspirated, cells were washed once with phosphate buffered saline, pH7.4 (Gibco), and 1 mL DMEM/12 media was replaced. Test compounds were added in 3-fold dilutions from up to 100 μM down to 333 pM, with vehicle (dimethylsulfoxide (Sigma)) as a control. After four days of culture in a humidified 5% CO2 chamber at 37° C., plates were spun down in a centrifuge at 300 g for 10 minutes at room temperature. Supernatant from each well was collected and either frozen at −20° C. or used directly for quantitation of hepatitis B surface antigen (HBSAg) in an enzyme-linked immunosorbent assay (ELISA). The supernatant was tested using the HBSAg ELISA kit (Abnova Cat. No KA0286) per the manufacturer's instructions. Results of replicates were averaged and nonlinear curve fitting was used to determine the half maximal inhibitory concentration (IC50) for each test compound.

The mark [4] stands for this setting: 10 μM test compound (Table 2a), read-out: ΔTm at 10 μM.
Where [5] appears, read: 10 μM test compound, shift vs DMSO control, read-out: ΔTm (Table 2, starred: the compound was tested at 10 μM).

Each structure is given as a SMILES string. Where two headings read alike, the source gives them in different places.

Regarding `O=C(O)c1cc(Cl)ccc1Nc1c(S(=O)(=O)N2CCSCC2)cnc2cc(C(F)(F)F)c(Cl)cc12` [Compound 413A, 5-chloro-2-[[6-chloro-3-thiomorpholinosulfonyl-7-(trifluoromethyl)-4-quinolyl]amino]benzoic acid], the minimal effective concentration in assay [1] and in assay [2] was less than 0.001 µM throughout. The ΔTm at 1 µM at rPAPD5 is 1 to 5 °C. In addition, the thermal shift (ΔTm) at 10 µM on rPAPD5 (setting [4]) and at rPAPD5 (setting [5]) was more than 5 °C throughout.
Consider `O=C(O)c1cc(Cl)ccc1Nc1c(S(=O)(=O)N2CCSCC2)cnc2c(Br)cc(Cl)cc12` [Compound 422A, 2-[(8-bromo-6-chloro-3-thiomorpholinosulfonyl-4-quinolyl)amino]-5-chloro-benzoic acid], for which the minimal effective concentration in assay [1] and in assay [2] was less than 0.001 µM each time. On rPAPD5, the ΔTm at 1 µM was more than 5 °C. Also, the thermal shift (ΔTm) at 10 µM at rPAPD5 (setting [4]) and on rPAPD5 (setting [5]) was more than 5 °C each time.
In the case of `O=C(O)c1cc(Cl)ccc1Nc1c(S(=O)(=O)N2CCSCC2)cnc2cc(Cl)c(Cl)cc12` [Compound 414A, 5-chloro-2-[(6,7-dichloro-3-thiomorpholinosulfonyl-4-quinolyl)amino]benzoic acid], the minimal effective concentration in assay [1] and in assay [2] was less than 0.001 µM each time. For the same compound, at rPAPD5, the ΔTm at 1 µM was more than 5 °C. Further, the ΔTm at 10 µM on rPAPD5 (setting [4]) and at rPAPD5 (setting [5]) was more than 5 °C in each case.
For the compound `O=C(O)c1cc(Cl)ccc1Nc1c(N2CCC(=NO)CC2)cnc2ccc(Cl)cc12` [Compound 376A, 5-chloro-2-[[6-chloro-3-(4-hydroxyimino-1-piperidyl)-4-quinolyl]amino]benzoic acid], at rPAPD5, the ΔTm at 1 µM is more than 5 °C. Besides, at rPAPD5 (setting [4]), the ΔTm at 10 µM is more than 5 °C. Also, the thermal shift (ΔTm) at 100 µM on rPAPD5 (shift vs DMSO control) is more than 5 °C. In addition, the minimal effective concentration in assay [2] is 1 µM. Moreover, the IC50 in assay [3] stood at 101 nM.
In the case of `Cc1cc2ncc(S(=O)(=O)N3CCSCC3)c(Nc3ccc(Cl)cc3C(=O)O)c2cc1Cl` [Compound 411A, 5-chloro-2-[(6-chloro-7-methyl-3-thiomorpholinosulfonyl-4-quinolyl)amino]benzoic acid], the minimal effective concentration in assay [1] and in assay [2] was less than 0.001 µM each time. Also, the ΔTm at 1 µM at rPAPD5 is more than 5 °C. Moreover, the ΔTm at 10 µM at rPAPD5 (setting [4]) and at rPAPD5 (setting [5]) was more than 5 °C each time.
As for `O=C(O)c1cc(Cl)ccc1Nc1c(N2CCC(O)CC2)cnc2ccc(Cl)cc12` [Compound 399A, 5-chloro-2-[[6-chloro-3-(4-hydroxy-1-piperidyl)-4-quinolyl]amino]benzoic acid], the minimal effective concentration in assay [1] and in assay [2] was less than 0.001 µM in each case. Moreover, the thermal shift (ΔTm) at 1 µM at rPAPD5 was more than 5 °C. The ΔTm at 10 µM on rPAPD5 (setting [4]) is more than 5 °C. The ΔTm at 100 µM at rPAPD5 (shift vs DMSO control) was more than 5 °C.
For the compound `CN1CC=C(c2cnc3ccc(Cl)cc3c2Nc2ccc(Cl)cc2C(=O)O)CC1` [Compound 367A, 5-chloro-2-[[6-chloro-3-(1-methyl-3,6-dihydro-2H-pyridin-4-yl)-4-quinolyl]amino]benzoic acid], the ΔTm at 1 µM at rPAPD5 is more than 5 °C. The ΔTm at 10 µM at rPAPD5 (setting [4]) is more than 5 °C. The ΔTm at 100 µM at rPAPD5 (shift vs DMSO control) was more than 5 °C. In assay [2], the minimal effective concentration amounted to 1 µM. Moreover, the IC50 in assay [3] was 902 nM.
On to `Cc1nc2ccc(Cl)cc2c(Nc2ccc(Cl)cc2C(=O)O)c1S(=O)(=O)N1CCSCC1` [Compound 423A, 5-chloro-2-[(6-chloro-2-methyl-3-thiomorpholinosulfonyl-4-quinolyl)amino]benzoic acid], for which the minimal effective concentration in assay [1] and in assay [2] was less than 0.001 µM each time. Also, the thermal shift (ΔTm) at 1 µM at rPAPD5 was more than 5 °C. In addition, the shift in melting temperature (ΔTm) at 10 µM on rPAPD5 (setting [4]) was more than 5 °C. On rPAPD5 (shift vs DMSO control), the ΔTm at 100 µM is more than 5 °C.
In the case of `O=C(O)c1cc(Cl)ccc1Nc1c(N2CCSCC2)cnc2ccc(Cl)cc12` [Compound 346A, 5-chloro-2-[(6-chloro-3-thiomorpholino-4-quinolyl)amino]benzoic acid], at rPAPD5, the ΔTm at 1 µM is 1 to 5 °C. For the same compound, the shift in melting temperature (ΔTm) at 10 µM on rPAPD5 (setting [4]) is more than 5 °C. Moreover, the ΔTm at 100 µM at rPAPD5 (shift vs DMSO control) was more than 5 °C. In addition, the minimal effective concentration in assay [2] fell in the range of 0.001 to 1 µM. In assay [3], this compound returned an IC50 of 88 nM.
As for `O=C(O)c1cc(Cl)ccc1Nc1c(-c2cn[nH]c2)cnc2ccc(Cl)cc12` [Compound 354A, 5-chloro-2-[[6-chloro-3-(1H-pyrazol-4-yl)-4-quinolyl]amino]benzoic acid], the ΔTm at 1 µM on rPAPD5 lay within 1 to 5 °C. Further, the ΔTm at 10 µM on rPAPD5 (setting [4]) and at rPAPD5 (setting [5]) was more than 5 °C in each case. In assay [2], the minimal effective concentration was 1 µM. For the same compound, the midpoint of inhibition in assay [3], the IC50, lay at 3340 nM.
On to `O=C(O)c1cc(F)ccc1Nc1c(S(=O)(=O)N2CCOCC2)cnc2ccc(Cl)cc12` [Compound 267A, 2-[(6-chloro-3-morpholinosulfonyl-4-quinolyl)amino]-5-fluoro-benzoic acid], for which, at rPAPD5 (shift vs DMSO control), the ΔTm at 100 µM is more than 5 °C. For the same compound, the IC50 in assay [3] amounted to 4840 nM.
For the compound `O=C(O)c1ccccc1Nc1c(NC2CCC(F)(F)CC2)cnc2ccc(Cl)cc12` [Compound 185A, 2-[[6-chloro-3-[(4,4-difluorocyclohexyl)amino]-4-quinolyl]amino]benzoic acid], the ΔTm at 100 µM at rPAPD5 (shift vs DMSO control) was more than 5 °C. In assay [3], this compound had an IC50 of 2190 nM.
In the same order, the values of `O=C(O)c1cc(F)ccc1Nc1c(C2CCOCC2)cnc2ccc(Cl)cc12` [Compound 303A, 2-[(6-chloro-3-tetrahydropyran-4-yl-4-quinolyl)amino]-5-fluoro-benzoic acid] are more than 5 °C and 229 nM.
On to `COc1ccc(Nc2c(C3CCOCC3)cnc3ccc(Cl)cc23)c(C(=O)O)c1` [Compound 307A, 2-[(6-chloro-3-tetrahydropyran-4-yl-4-quinolyl)amino]-5-methoxy-benzoic acid], for which the ΔTm at 100 µM at rPAPD5 (shift vs DMSO control) was more than 5 °C. This compound also came in with an IC50 in assay [3] of 1320 nM.
As to `O=C(O)c1ccccc1Nc1c(C2=CCOCC2)cnc2ccc(Cl)cc12` [Compound 204A-INT, 2-[[6-chloro-3-(3,6-dihydro-2H-pyran-4-yl)-4-quinolyl]amino]benzoic acid], the ΔTm at 100 µM at rPAPD5 (shift vs DMSO control) was more than 5 °C. For the same compound, the IC50 in assay [3] stood at 2690 nM.
In the same order, the values of `O=C(O)c1ccccc1Nc1c(-c2ncco2)cnc2ccc(Br)cc12` [Compound 130A] are more than 5 °C and 8890 nM.
For the compound `O=C(O)c1ccccc1Nc1c(S(=O)(=O)Nc2nn[nH]n2)cnc2ccc(Cl)cc12` [Compound 226A, 2-[[6-chloro-3-(2H-tetrazol-5-ylsulfamoyl)-4-quinolyl]amino]benzoic acid], the ΔTm at 100 µM at rPAPD5 (shift vs DMSO control) was more than 5 °C. This compound also gave an IC50 in assay [3] of 9460 nM.
In the same order, the values of `Cc1ccc(Nc2c(S(=O)(=O)N3CCOCC3)cnc3ccc(Cl)cc23)c(C(=O)O)c1` [Compound 269A, 2-[(6-chloro-3-morpholinosulfonyl-4-quinolyl)amino]-5-methyl-benzoic acid] are more than 5 °C and 1680 nM.
In the same order, the values of `Cc1ccc(Nc2c(C3=CCOCC3)cnc3ccc(Cl)cc23)c(C(=O)O)c1` [Compound 306A, 2-[[6-chloro-3-(3,6-dihydro-2H-pyran-4-yl)-4-quinolyl]amino]-5-methyl-benzoic acid] are more than 5 °C and 1050 nM.
In the same order, the values of `O=C(O)c1ccccc1Nc1c(-c2ncco2)cnc2ccc(Cl)cc12` [Compound 129A, 2-[(6-chloro-3-oxazol-2-yl-4-quinolyl)amino]benzoic acid] are more than 5 °C and 4600 nM.
Turning to `O=C(O)c1cc(Cl)ccc1Nc1c(C2CCSCC2)cnc2ccc(Cl)cc12` [Compound 341A, 5-chloro-2-[(6-chloro-3-tetrahydrothiopyran-4-yl-4-quinolyl)amino]benzoic acid], the ΔTm at 1 µM on rPAPD5 is more than 5 °C. Moreover, the ΔTm at 10 µM at rPAPD5 (setting [4]) and on rPAPD5 (setting [5]) was more than 5 °C throughout. Moreover, the minimal effective concentration in assay [2] is 0.001 to 1 µM. This compound registered an IC50 in assay [3] of 84 nM.
`O=C(O)c1ccccc1Nc1c(C2CCOCC2)cnc2ccc(Cl)cc12` [Compound 204A, 2-[(6-chloro-3-tetrahydropyran-4-yl-4-quinolyl)amino]benzoic acid]: at rPAPD5 (shift vs DMSO control), the ΔTm at 100 µM is more than 5 °C. In assay [3], this compound displayed a half-inhibitory concentration (IC50) of 3390 nM.

For the origin of these results see patent publication US20250026769A1, “PAPD5 INHIBITORS AND METHODS OF USE THEREOF” (The Children's Medical Center Corporation, priority 2021, published 2025).
